Consider 17 compounds from ChEMBL document CHEMBL5126512, “Current status of carbazole hybrids as anticancer agents” (Eur J Med Chem, 2022).

As a reminder, the IC50 is the point on the concentration scale where inhibition reaches its midpoint. As a reminder, the GI50 is the concentration that inhibits growth by half.

In data set [1] the test system is HEp-2. The data set can be described thus: Cytotoxicity against human HEp-2 cells assessed as cell growth inhibition by MTT assay. Type of data set: functional, cell-based. Background: Tetrazolium dyes change colour on reduction, which living cells bring about.
Data set [2] has as its system MCF7. Nature of the data set: Cytotoxicity against human MCF7 cells assessed as cell growth inhibition by MTT assay. The class given is functional, cell-based.
For data set [3], the system named is HeLa. Nature of the data set: Cytotoxicity against human HeLa cells assessed as cell growth inhibition by MTT assay. Type of data set: functional, cell-based.
In data set [4] the test system is MDA-MB-231. The data set can be described thus: Antiproliferative activity against human MDA-MB-231 cells assessed as cell growth inhibition measured after 72 hrs by MTT assay. The class given is functional, cell-based. The note with it: MDA-MB-231, 72 h.
Data set [5] concerns HCT-116. Nature of the data set: Antiproliferative activity against human HCT-116 cells assessed as cell growth inhibition measured after 72 hrs by MTT assay. Type of data set: functional, cell-based. The settings on record: HCT-116, 72 h.
Data set [6] has as its system A549. Nature of the data set: Antiproliferative activity against human A549 cells assessed as cell growth inhibition measured after 72 hrs by MTT assay. The note with it: A549, 72 h. Type of data set: functional, cell-based.
Data set [7] deals with MDA-MB-231. The data set can be described thus: Antiproliferative activity against human MDA-MB-231 cells assessed as cell growth inhibition measured after 48 hrs by SRB assay. Type of data set: functional, cell-based. The settings on record: for GI50: MDA-MB-231, time 48 hrs. A general note: Sulforhodamine B stains cellular protein and so reports cell mass.
Data set [8] has as its system MCF7. The data set can be described thus: Antiproliferative activity against human MCF7 cells assessed as cell growth inhibition measured after 48 hrs by SRB assay. The class given is functional, cell-based. The settings on record: for GI50: MCF7, time 48 hrs.
Data set [9] relates to MCF7. The data set can be described thus: Cytotoxicity against human MCF7 cells assessed as cell growth inhibition measured after 48 hrs by MTT assay. The class given is functional, cell-based. The settings on record: MCF7, 48 h.
Data set [10] is described as follows: Cytotoxicity against human RPE-1 cells assessed as cell growth inhibition measured after 48 hrs by MTT assay. The class given is toxicity, cell-based. The note with it: RPE-1 (TERT-RPE1) cells.
Data set [11] deals with HCT-116. Nature of the data set: Cytotoxicity against human HCT-116 cells assessed as cell growth inhibition measured after 48 hrs by MTT assay. The settings on record: HCT-116, 48 h. The class given is functional, cell-based.
Data set [12] relates to HepG2. The data set can be described thus: Cytotoxicity against human HepG2 cells assessed as cell growth inhibition measured after 48 hrs by MTT assay. Type of data set: functional, cell-based. The note with it: HepG2, 48 h.
For data set [13], the system named is HCT-116. The data set can be described thus: Antiproliferative activity against human HCT-116 cells assessed as cell growth inhibition by MTT assay. The class given is functional, cell-based.
The test system of data set [14] is SK-OV-3. The data set can be described thus: Antiproliferative activity against human SK-OV-3 cells assessed as cell growth inhibition by MTT assay. Type of data set: functional, cell-based.
In data set [15] the test system is K562. Nature of the data set: Antiproliferative activity against human K562 cells assessed as cell growth inhibition by MTT assay. The class given is functional, cell-based.
In data set [16] the test system is MCF7. Nature of the data set: Antiproliferative activity against human MCF7 cells assessed as cell growth inhibition by MTT assay. Type of data set: functional, cell-based.
The subject of data set [17] is MDA-MB-231. Nature of the data set: Antiproliferative activity against human MDA-MB-231 cells assessed as cell growth inhibition by MTT assay. The class given is functional, cell-based.
The test system of data set [18] is HepG2. The data set can be described thus: Cytotoxicity against human HepG2 cells assessed as cell growth inhibition measured after 72 hrs by MTT assay. The class given is functional, cell-based. The note with it: HepG2, 72 h.
Data set [19] deals with SW1990. The data set can be described thus: Anticancer activity against human SW1990 cells assessed as cell growth inhibition measured after 72 hrs by Cell-Titre Glo luminescent cell viability assay. Type of data set: functional, cell-based. The settings on record: SW1990, 72 h.
Data set [20] has as its system ASPC1. The data set can be described thus: Anticancer activity against human ASPC1 cells assessed as cell growth inhibition measured after 72 hrs by Cell-Titre Glo luminescent cell viability assay. Type of data set: functional, cell-based. The settings on record: ASPC1, 72 h.
In data set [21] the test system is HeLa. Nature of the data set: Antiproliferative activity against human HeLa cells assessed as cell growth inhibition by MTT assay. The class given is functional, cell-based.
Data set [22] deals with COLO 205. The data set can be described thus: Antiproliferative activity against human COLO 205 cells assessed as cell growth inhibition by MTT assay. Type of data set: functional, cell-based.
Data set [23] deals with A549. Nature of the data set: Antiproliferative activity against human A549 cells assessed as cell growth inhibition by MTT assay. The class given is functional, cell-based.
Data set [24] in a line: Cytotoxicity against human A875 cells assessed as cell growth inhibition measured after 72 hrs by MTT assay. Type of data set: functional, cell-based. The note with it: A875, 72 h.
Data set [25] can be described thus: Cytotoxicity against green monkey MARC145 cells assessed as cell growth inhibition measured after 72 hrs by MTT assay. The class given is toxicity, cell-based, Chlorocebus aethiops.
Data set [26] concerns 786-0. The data set can be described thus: Antiproliferative activity against human 786-0 cells assessed as cell growth inhibition measured after 48 hrs by SRB assay. Type of data set: functional, cell-based. The note with it: 786-0, 48 h.
For data set [27], the system named is OVCAR-3. Nature of the data set: Antiproliferative activity against human OVCAR-3 cells assessed as cell growth inhibition measured after 48 hrs by SRB assay. Type of data set: functional, cell-based. The settings on record: OVCAR-3, 48 h.
For data set [28], the system named is OVCAR-4. The data set can be described thus: Antiproliferative activity against human OVCAR-4 cells assessed as cell growth inhibition measured after 48 hrs by SRB assay. The class given is functional, cell-based. The note with it: OVCAR-4, 48 h.
Data set [29] has as its system SW-620. The data set can be described thus: Antiproliferative activity against human SW-620 cells assessed as cell growth inhibition measured after 48 hrs by SRB assay. The class given is functional, cell-based. The settings on record: SW-620, 48 h.
Data set [30] deals with Hs-578T. The data set can be described thus: Antiproliferative activity against human Hs-578T cells assessed as cell growth inhibition measured after 48 hrs by SRB assay. Type of data set: functional, cell-based.
Data set [31] concerns UO-31. Nature of the data set: Antiproliferative activity against human UO-31 cells assessed as cell growth inhibition measured after 48 hrs by SRB assay. Type of data set: functional, cell-based. The note with it: UO-31, 48 h.
The test system of data set [32] is SNB-75. The data set can be described thus: Antiproliferative activity against human SNB-75 cells assessed as cell growth inhibition measured after 48 hrs by SRB assay. Type of data set: functional, cell-based. The note with it: SNB-75, 48 h.
For data set [33], the system named is HOP-62. The data set can be described thus: Antiproliferative activity against human HOP-62 cells assessed as cell growth inhibition measured after 48 hrs by SRB assay. Type of data set: functional, cell-based. The note with it: HOP-62, 48 h.
Data set [34] has as its system A549. The data set can be described thus: Cytotoxicity against human A549 cells assessed as cell growth inhibition measured after 24 hrs by MTT assay. The class given is functional, cell-based. The note with it: A549, 24 h, pooled result: one value given for 4 cell lines, strains, targets or settings.

Turning to `O=C1c2ccsc2N=C2c3[nH]c4ccc(Cl)cc4c3CCC12` (stereo not drawn), the IC50 in [1], in data set [2] and in data set [3] was 3.6 µM each time.
On to `CC1CCN(CC(O)Cn2c3ccc(Cl)cc3c3cc(Cl)ccc32)CC1` (stereo not drawn), for which the IC50 in data set [4], in data set [5] and in [6] was 7.1 µM each time.
Turning to `COc1ccc(C(NNC(=O)Cn2c3ccccc3c3ccccc32)N2CCNCC2)cc1` (stereo not drawn), the GI50 in [7] and in data set [8] was < 10 µM throughout.
As to `CCn1c2ccccc2c2cc(NC(=O)c3cc4cccc(OC)c4oc3=O)ccc21`, the IC50 in [9], in data set [11] and in [12] was 0.9 µM throughout. For the same compound, in data set [10], the 50% inhibitory concentration (IC50) at 48 h was > 100 µM.
Turning to `O=Cc1c[nH]c2c1ccc1c3ccccc3n(CCCC(=O)NCCn3ccn4c5ccc(C(F)(F)F)cc5cc34)c12`, the IC50 in [13], in data set [14], in data set [15], in data set [16] and in data set [17] was 9 µM each time.
Take `Cc1c(C(=O)N/N=C/c2c[nH]c3ccccc23)ccc2c1[nH]c1ccccc12`: in [18], the IC50 is > 13.3 µM.
For the compound `CCCCn1c2ccc(Br)cc2c2cc(/C=N/NC(=O)c3ccncc3)ccc21`, the concentration for half-maximal inhibition (IC50) in data set [19] and in data set [20] was 3.42 µM each time.
With `Oc1c(C(c2ccc(C(F)(F)F)cc2)N2CCCC2)ccc2[nH]c3ccccc3c12` (stereo not drawn), the IC50 in data set [21] and in [17] was 5.4 µM each time.
For the compound `COc1ccc2[nH]c3c(C)cc(-c4cc(-c5ccc(C(F)(F)F)cc5)nc(N)n4)c(C)c3c2c1`, the half-maximal inhibitory concentration (IC50) in data set [22], in data set [16] and in [23] was 0.1 µM throughout.
For `Cc1c(C(=O)NCCc2c[nH]c3ccccc23)ccc2c1[nH]c1ccccc12`, the IC50 in [24] and in [18] was 20 µM each time. In addition, the IC50 at 72 h in [25] amounted to 20 µM.
On to `OC(CN1CCCCC1)Cn1c2ccc(Cl)cc2c2cc(Cl)ccc21` (stereo not drawn), for which the IC50 in data set [4], in [5] and in data set [6] was 7.1 µM each time.
In the case of `COc1ccc2[nH]c3c(C)cc(-c4cc(-c5ccc(C(F)(F)F)cc5F)nc(N)n4)c(C)c3c2c1`, the half-inhibitory concentration (IC50) in data set [22], in [16] and in [23] was 0.1 µM each time.
Turning to `O=C1c2ccsc2N=C2c3[nH]c4ccc(Br)cc4c3CCC12` (stereo not drawn), the concentration for half-maximal inhibition (IC50) in data set [1], in data set [2] and in data set [3] was 5.75 µM each time.
In the case of `Cc1c2ccncc2c(C(=O)NCc2ccccc2)c2c1[nH]c1ccccc12`, the IC50 in [26] turned out to be 1.71 µM; in [7] (MDA-MB-231, 48 h), 1.71 µM; in data set [27], 1.71 µM; in [28], 1.71 µM; in [29], 1.71 µM; in [30], 1.71 µM. Moreover, the concentration for half-maximal inhibition (IC50) stood at 1.71 µM in data set [8] (MCF7, 48 h); 1.71 µM in data set [31]; 1.71 µM in data set [32]; 1.71 µM in [33].
Take `CCn1c2ccccc2c2cc(NC(=O)c3cc4cc(Br)cc(Br)c4oc3=O)ccc21`: the IC50 in data set [9], in [11] and in [12] was 0.9 µM in each case.
As for `COc1cc([C@@H]2c3cc4c(cc3[C@@H](O[C@@H]3O[C@@H]5CO[C@@H](C)O[C@H]5[C@H](O)[C@H]3O)[C@H]3COC(=O)[C@H]23)OCO4)cc(OC)c1O` [ETOPOSIDE], in [34], the 50% inhibitory concentration (IC50) was found to be 1.97 µM.
In the case of `O=C(Cn1c2ccccc2c2ccccc21)NNC(c1ccc(O)cc1)N1CCNCC1` (stereo not drawn), the GI50 in [7] and in [8] was < 10 µM each time.
